Values after ≈ are worked out from the molar mass of the structure shown.

What all share (type): functional
The test system of experiment [1] is Mycobacterium tuberculosis. Kind of experiment: Antitubercular activity against multi-drug-resistant Mycobacterium tuberculosis H37Rv clinical isolate after 28 days by 10 fold serial dilution method. The following applies: 672 h.
Experiment [2] deals with Mycobacterium tuberculosis. As to the kind of experiment: Ratio of Ethambutol MIC to compound MIC for multi-drug-resistant Mycobacterium tuberculosis H37Rv clinical isolate.
In experiment [3] the test system is Mycobacterium tuberculosis. As to the kind of experiment: Ratio of Ciprofloxacin MIC to compound MIC for multi-drug-resistant Mycobacterium tuberculosis H37Rv clinical isolate.

Turning to `Brc1cccc(-c2nc3ccccc3c(-c3ccccc3)c2Oc2ccc(-c3cc(-c4ccccc4)c4ccccc4n3)cc2)c1`, in experiment [1], the MIC came out at 4.7 µM (≈ 3.08 µg/mL). The same measure, in the same setting: the figure for `CO[C@H]1/C=C/O[C@@]2(C)Oc3c(C)c(O)c4c(O)c(c(/C=N/N5CCN(C)CC5)c(O)c4c3C2=O)NC(=O)/C(C)=C\C=C\[C@H](C)[C@H](O)[C@@H](C)[C@@H](O)[C@@H](C)[C@H](OC(C)=O)[C@@H]1C` [RIFAMPIN] is 0.1 µM (≈ 0.0823 µg/mL). As to `Clc1ccc2nc(-c3ccc(Oc4c(-c5ccc(Br)cc5)nc5ccc(Cl)cc5c4-c4ccccc4)cc3)cc(-c3ccccc3)c2c1`, the MIC in experiment [1] worked out at 2.2 µM (≈ 1.59 µg/mL). Moreover, the results for the Ratio in experiment [2] and in experiment [3] were 3.45 and 2.14, respectively. The compound `Clc1ccc2nc(-c3ccc(Oc4c(-c5ccccc5)nc5ccc(Cl)cc5c4-c4ccccc4)cc3)cc(-c3ccccc3)c2c1` displayed an MIC in experiment [1] of 19.4 µM (≈ 12.5 µg/mL).

As for `NNC(=O)c1ccncc1` [ISONIAZID], in experiment [1], the MIC came to 0.4 µM (≈ 0.0549 µg/mL). On the same count and under the same terms, in the case of `COc1cccc(-c2nc3ccccc3c(-c3ccccc3)c2Oc2ccc(-c3cc(-c4ccccc4)c4ccccc4n3)cc2)c1` it was 41.2 µM (≈ 25 µg/mL).

Consider `Cc1ccc(-c2nc3ccccc3c(-c3ccccc3)c2Oc2ccc(-c3cc(-c4ccccc4)c4ccccc4n3)cc2)cc1`, for which the lowest concentration to inhibit growth in experiment [1] (MIC) was 42.3 µM (≈ 25 µg/mL).

In turn, `CC(=O)c1ccc(Oc2c(-c3ccccc3)nc3ccc(Cl)cc3c2-c2ccccc2)cc1` came in with a minimum inhibitory concentration (MIC) in experiment [1] of 55.6 µM (≈ 25 µg/mL). Take `Clc1ccc2nc(-c3ccc(Oc4c(-c5cccc(Br)c5)nc5ccc(Cl)cc5c4-c4ccccc4)cc3)cc(-c3ccccc3)c2c1`: the MIC in experiment [1] came out at 1.1 µM (≈ 0.797 µg/mL). For the same compound, the Ratio in experiment [3] is 4.27.

On to `c1ccc(-c2ccc(-c3nc4ccccc4c(-c4ccccc4)c3Oc3ccc(-c4cc(-c5ccccc5)c5ccccc5n4)cc3)cc2)cc1`, for which the MIC in experiment [1] came out at 19.1 µM (≈ 12.5 µg/mL). Still for that read-out and setting: in the case of `CC(=O)c1ccc(Oc2c(-c3ccc(Br)cc3)nc3ccc(Cl)cc3c2-c2ccccc2)cc1` it was 47.3 µM (≈ 25 µg/mL); in that of `CC(=O)c1ccc(Oc2c(-c3ccc4ccccc4c3)nc3ccc(Cl)cc3c2-c2ccccc2)cc1`, 50 µM (≈ 25 µg/mL).

`Cc1ccc(-c2nc3ccc(Cl)cc3c(-c3ccccc3)c2Oc2ccc(-c3cc(-c4ccccc4)c4cc(Cl)ccc4n3)cc2)cc1`: the MIC in experiment [1] is 37.9 µM (≈ 25 µg/mL). Still for that read-out and setting: the figure for `Clc1ccc(-c2nc3ccc(Cl)cc3c(-c3ccccc3)c2Oc2ccc(-c3cc(-c4ccccc4)c4cc(Cl)ccc4n3)cc2)cc1` is 4.6 µM (≈ 3.13 µg/mL); for `CC(=O)c1ccc(Oc2c(-c3cccc(Br)c3)nc3ccc(Cl)cc3c2-c2ccccc2)cc1` it is 11.8 µM (≈ 6.24 µg/mL); for `c1ccc(-c2cc(-c3ccc(Oc4c(-c5ccc6ccccc6c5)nc5ccccc5c4-c4ccccc4)cc3)nc3ccccc23)cc1` it is 39.9 µM (≈ 25 µg/mL). Same read-out and setting: the figure for `Clc1ccc(-c2nc3ccccc3c(-c3ccccc3)c2Oc2ccc(-c3cc(-c4ccccc4)c4ccccc4n3)cc2)cc1` is 20.5 µM (≈ 12.5 µg/mL); for `COc1ccc(-c2nc3ccccc3c(-c3ccccc3)c2Oc2ccc(-c3cc(-c4ccccc4)c4ccccc4n3)cc2)cc1` it is 41.2 µM (≈ 25 µg/mL).

Take `NC(=O)c1cnccn1` [PYRAZINAMIDE]: the MIC in experiment [1] was 50.8 µM (≈ 6.25 µg/mL).

In experiment [1], `c1ccc(-c2cc(-c3ccc(Oc4c(-c5cccc6ccccc56)nc5ccccc5c4-c4ccccc4)cc3)nc3ccccc23)cc1` came in with an MIC of 39.8 µM (≈ 24.9 µg/mL). The same measure, in the same setting: the figure for `c1ccc(-c2nc3ccccc3c(-c3ccccc3)c2Oc2ccc(-c3cc(-c4ccccc4)c4ccccc4n3)cc2)cc1` is 43.4 µM (≈ 25 µg/mL). Regarding `Clc1cccc(-c2nc3ccccc3c(-c3ccccc3)c2Oc2ccc(-c3cc(-c4ccccc4)c4ccccc4n3)cc2)c1`, inhibition of growth in experiment [1] (MIC) required 20.5 µM (≈ 12.5 µg/mL).

Consider `Clc1ccc2nc(-c3ccc(Oc4c(-c5ccc6ccccc6c5)nc5ccc(Cl)cc5c4-c4ccccc4)cc3)cc(-c3ccccc3)c2c1`, for which the MIC in experiment [1] was found to be 35.9 µM (≈ 25 µg/mL). In the case of `CC(=O)c1ccc(Oc2c(-c3ccc(C)cc3)nc3ccc(Cl)cc3c2-c2ccccc2)cc1`, 53.8 µM (≈ 25 µg/mL) was the least that counted as inhibitory in experiment [1] (MIC).

As for `CC[C@@H](CO)NCCN[C@@H](CC)CO` [ETHAMBUTOL], it took 7.6 µM (≈ 1.55 µg/mL) to inhibit growth in experiment [1] (MIC). `CC(=O)c1ccc(Oc2c(-c3ccc(Cl)cc3)nc3ccc(Cl)cc3c2-c2ccccc2)cc1` displayed an MIC in experiment [1] of 51.6 µM (≈ 25 µg/mL). For the compound `Brc1ccc(-c2nc3ccccc3c(-c3ccccc3)c2Oc2ccc(-c3cc(-c4ccccc4)c4ccccc4n3)cc2)cc1`, the MIC in experiment [1] amounted to 19.1 µM (≈ 12.5 µg/mL).
